# From PubChem BioAssay AID2060602 (Molecular Pharmacology Branch, DTP, NCI, 2025)
# Tested on: 648629-189-R-J1-PDC complex spheroids viability
# Test: Anticancer human tumor 648629-189-R-J1-PDC patient-derived bladder carcinoma cell line growth inhibition [CLK]
# Settings: for IC50: curve of first compound; for viability, T/C: stronger effect = lower value
# Outline: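 Multi-cell-type spheroids combined patient-derived tumor cells with HUVEC endothelial cells and human mesenchymal stem cells. Paired agents were dosed in half-log steps down from about clinical Cmax, or from 10 microM where Cmax was unknown.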
# [1] = second compound 0.0316 µM, first compound 0.0316 µM
# [2] = second compound 0.0316 µM, first compound 0.1 µM
# [3] = second compound 0.0316 µM, first compound 0.316 µM
# [4] = second compound 0.0316 µM, first compound 1 µM
# [5] = second compound 0.0316 µM, first compound 3.16 µM
# [6] = second compound 0.0316 µM, first compound 10 µM
# [7] = second compound 0.1 µM, first compound 0.0316 µM
# [8] = second compound 0.1 µM, first compound 0.1 µM
# [9] = second compound 0.1 µM, first compound 0.316 µM
# [10] = second compound 0.1 µM, first compound 1 µM
# [11] = second compound 0.1 µM, first compound 3.16 µM
# [12] = second compound 0.1 µM, first compound 10 µM
# [13] = second compound 0.316 µM, first compound 0.0316 µM
# [14] = second compound 0.316 µM, first compound 0.1 µM
# [15] = second compound 0.316 µM, first compound 0.316 µM
# [16] = second compound 0.316 µM, first compound 1 µM
# [17] = second compound 0.316 µM, first compound 3.16 µM
# [18] = second compound 0.316 µM, first compound 10 µM
# [19] = second compound 1 µM, first compound 0.0316 µM
# [20] = second compound 1 µM, first compound 0.1 µM
# [21] = second compound 1 µM, first compound 0.316 µM
# [22] = second compound 1 µM, first compound 1 µM
# [23] = second compound 1 µM, first compound 3.16 µM
# [24] = second compound 1 µM, first compound 10 µM
# [25] = second compound 3.16 µM, first compound 0.0316 µM
# [26] = second compound 3.16 µM, first compound 0.1 µM
# [27] = second compound 3.16 µM, first compound 0.316 µM
# [28] = second compound 3.16 µM, first compound 1 µM
# [29] = second compound 3.16 µM, first compound 3.16 µM
# [30] = second compound 3.16 µM, first compound 10 µM
# [31] = second compound 10 µM, first compound 0.0316 µM
# [32] = second compound 10 µM, first compound 0.1 µM
# [33] = second compound 10 µM, first compound 0.316 µM
# [34] = second compound 10 µM, first compound 1 µM
# [35] = second compound 10 µM, first compound 3.16 µM
# [36] = second compound 10 µM, first compound 10 µM
# 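Wherever viability, T/C is given: drug exposure lasted seven days before viability readout; 100% = DMSO vehicle control wells.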
smiles,measurement,setting,value
Nc1ccccc1NC(=O)c1ccc(CNC(=O)OCc2cccnc2)cc1 + CN1CCN(c2cc(C(=O)Nc3cc4cc(-c5cnn(C)c5)ccc4cn3)ccn2)CC1,IC50,second compound 0.0316 µM,1.87 µM
same,IC50,second compound 0.1 µM,1.84 µM
same,IC50,second compound 0.316 µM,< 0.0316 µM
same,IC50,second compound 1 µM,< 0.0316 µM
same,IC50,second compound 3.16 µM,< 0.0316 µM
same,IC50,second compound 10 µM,< 0.0316 µM
same,"viability, T/C",[1],124%
same,"viability, T/C",[2],125%
same,"viability, T/C",[3],96.9%
same,"viability, T/C",[4],72.2%
same,"viability, T/C",[5],32.5%
same,"viability, T/C",[6],1.56%
same,"viability, T/C",[7],107%
same,"viability, T/C",[8],109%
same,"viability, T/C",[9],96.9%
same,"viability, T/C",[10],71.7%
same,"viability, T/C",[11],31%
same,"viability, T/C",[12],1.87%
same,"viability, T/C",[13],37.4%
same,"viability, T/C",[14],46.7%
same,"viability, T/C",[15],39.1%
same,"viability, T/C",[16],33.8%
same,"viability, T/C",[17],7.95%
same,"viability, T/C",[18],0.08%
same,"viability, T/C",[19],0.41%
same,"viability, T/C",[20],0.4%
same,"viability, T/C",[21],0.31%
same,"viability, T/C",[22],0.07%
same,"viability, T/C",[23],0.1%
same,"viability, T/C",[24],0.53%
same,"viability, T/C",[25],0.08%
same,"viability, T/C",[26],1.97%
same,"viability, T/C",[27],0.1%
same,"viability, T/C",[28],0.07%
same,"viability, T/C",[29],0.07%
same,"viability, T/C",[30],2.02%
same,"viability, T/C",[31],0.04%
same,"viability, T/C",[32],0.11%
same,"viability, T/C",[33],0.12%
same,"viability, T/C",[34],0.14%
same,"viability, T/C",[35],2.26%
same,"viability, T/C",[36],0.17%
CC1(C)CCC(CN2CCN(c3ccc(C(=O)NS(=O)(=O)c4ccc(NCC5CCOCC5)c([N+](=O)[O-])c4)c(Oc4cnc5[nH]ccc5c4)c3)CC2)=C(c2ccc(Cl)cc2)C1 + CNC(=O)c1ccc(Nc2nc(OC3CCCC3)c3c(-c4ccc5nc(C)oc5c4)c[nH]c3n2)c(OC)c1,IC50,second compound 0.0316 µM,> 10 µM
same,IC50,second compound 0.1 µM,> 10 µM
same,IC50,second compound 0.316 µM,< 0.0316 µM
same,IC50,second compound 1 µM,< 0.0316 µM
same,IC50,second compound 3.16 µM,< 0.0316 µM
same,IC50,second compound 10 µM,< 0.0316 µM
same,"viability, T/C",[1],100%
same,"viability, T/C",[2],114%
same,"viability, T/C",[3],108%
same,"viability, T/C",[4],106%
same,"viability, T/C",[5],85.3%
same,"viability, T/C",[6],103%
same,"viability, T/C",[7],86.5%
same,"viability, T/C",[8],94%
same,"viability, T/C",[9],93.4%
same,"viability, T/C",[10],79.2%
same,"viability, T/C",[11],71%
same,"viability, T/C",[12],100%
same,"viability, T/C",[13],26.3%
same,"viability, T/C",[14],30.1%
same,"viability, T/C",[15],23.4%
same,"viability, T/C",[16],25.6%
same,"viability, T/C",[17],29.4%
same,"viability, T/C",[18],19.9%
same,"viability, T/C",[19],20.7%
same,"viability, T/C",[20],24.1%
same,"viability, T/C",[21],20.2%
same,"viability, T/C",[22],23.4%
same,"viability, T/C",[23],26.5%
same,"viability, T/C",[24],21.3%
same,"viability, T/C",[25],23.1%
same,"viability, T/C",[26],23.3%
same,"viability, T/C",[27],23.9%
same,"viability, T/C",[28],20.2%
same,"viability, T/C",[29],21.6%
same,"viability, T/C",[30],17.3%
same,"viability, T/C",[31],20.9%
same,"viability, T/C",[32],20.7%
same,"viability, T/C",[33],19.9%
same,"viability, T/C",[34],22%
same,"viability, T/C",[35],23.6%
same,"viability, T/C",[36],20.4%
O=C(c1cc(Cc2n[nH]c(=O)c3ccccc23)ccc1F)N1CCN(C(=O)C2CC2)CC1 + CNC(=O)c1ccc(Nc2nc(OC3CCCC3)c3c(-c4ccc5nc(C)oc5c4)c[nH]c3n2)c(OC)c1,IC50,second compound 0.0316 µM,> 10 µM
same,IC50,second compound 0.1 µM,> 10 µM
same,IC50,second compound 0.316 µM,< 0.0316 µM
same,IC50,second compound 1 µM,< 0.0316 µM
same,IC50,second compound 3.16 µM,< 0.0316 µM
same,IC50,second compound 10 µM,< 0.0316 µM
same,"viability, T/C",[1],92.3%
same,"viability, T/C",[2],101%
same,"viability, T/C",[3],103%
same,"viability, T/C",[4],106%
same,"viability, T/C",[5],83.3%
same,"viability, T/C",[6],74.9%
same,"viability, T/C",[7],93.6%
same,"viability, T/C",[8],95.1%
same,"viability, T/C",[9],89.3%
same,"viability, T/C",[10],86.9%
same,"viability, T/C",[11],82.9%
same,"viability, T/C",[12],70.8%
same,"viability, T/C",[13],26.9%
same,"viability, T/C",[14],29%
same,"viability, T/C",[15],27.1%
same,"viability, T/C",[16],29.1%
same,"viability, T/C",[17],28.7%
same,"viability, T/C",[18],27.4%
same,"viability, T/C",[19],18.8%
same,"viability, T/C",[20],17.3%
same,"viability, T/C",[21],20.1%
same,"viability, T/C",[22],17.2%
same,"viability, T/C",[23],17.6%
same,"viability, T/C",[24],18.6%
same,"viability, T/C",[25],15.9%
same,"viability, T/C",[26],18.9%
same,"viability, T/C",[27],19%
same,"viability, T/C",[28],20.3%
same,"viability, T/C",[29],19%
same,"viability, T/C",[30],19.2%
same,"viability, T/C",[31],23.8%
same,"viability, T/C",[32],21.7%
same,"viability, T/C",[33],22%
same,"viability, T/C",[34],19%
same,"viability, T/C",[35],20.2%
same,"viability, T/C",[36],21.1%
COc1c(OCCCN2CCOCC2)ccc2c3n(c(=NC(=O)c4cnc(N)nc4)nc12)CCN3 + CN1CCN(c2cc(C(=O)Nc3cc4cc(-c5cnn(C)c5)ccc4cn3)ccn2)CC1,IC50,second compound 0.0316 µM,0.0913 µM
same,IC50,second compound 0.1 µM,0.0733 µM
same,IC50,second compound 0.316 µM,< 0.00316 µM
same,IC50,second compound 1 µM,< 0.00316 µM
same,IC50,second compound 3.16 µM,< 0.00316 µM
same,IC50,second compound 10 µM,< 0.00316 µM
same,"viability, T/C","second compound 0.0316 µM, first compound 0.00316 µM",114%
same,"viability, T/C","second compound 0.0316 µM, first compound 0.01 µM",102%
same,"viability, T/C",[1],88.8%
same,"viability, T/C",[2],46.6%
same,"viability, T/C",[3],18.3%
same,"viability, T/C",[4],12.1%
same,"viability, T/C","second compound 0.1 µM, first compound 0.00316 µM",118%
same,"viability, T/C","second compound 0.1 µM, first compound 0.01 µM",101%
same,"viability, T/C",[7],72.4%
same,"viability, T/C",[8],43%
same,"viability, T/C",[9],18.3%
same,"viability, T/C",[10],10.7%
same,"viability, T/C","second compound 0.316 µM, first compound 0.00316 µM",45.6%
same,"viability, T/C","second compound 0.316 µM, first compound 0.01 µM",43.8%
same,"viability, T/C",[13],37.4%
same,"viability, T/C",[14],22.5%
same,"viability, T/C",[15],11%
same,"viability, T/C",[16],5.26%
same,"viability, T/C","second compound 1 µM, first compound 0.00316 µM",1.95%
same,"viability, T/C","second compound 1 µM, first compound 0.01 µM",0.55%
same,"viability, T/C",[19],0.91%
same,"viability, T/C",[20],0.76%
same,"viability, T/C",[21],0.14%
same,"viability, T/C",[22],0.11%
same,"viability, T/C","second compound 3.16 µM, first compound 0.00316 µM",0.14%
same,"viability, T/C","second compound 3.16 µM, first compound 0.01 µM",0.49%
same,"viability, T/C",[25],0.15%
same,"viability, T/C",[26],0.11%
same,"viability, T/C",[27],0.11%
same,"viability, T/C",[28],0.58%
same,"viability, T/C","second compound 10 µM, first compound 0.00316 µM",0.07%
same,"viability, T/C","second compound 10 µM, first compound 0.01 µM",0.14%
same,"viability, T/C",[31],0.42%
same,"viability, T/C",[32],0.17%
same,"viability, T/C",[33],1.19%
same,"viability, T/C",[34],1.16%
